“Also recorded” adds a separate entry of the source. Like-named read-outs stand apart in the source and are kept apart here. Residues, ends and D or L forms follow the SMILES beside them. *: point of attachment. Orn(α-tetramethylguanidino) = CN(C)C(=N[C@@H](CCCN)C(=O)*)N(C)C
Tests used:
[1] = EDTA plasma of CD-1 mice after continuous sc infusion of Api137 (12.8 mg/kg/h) using ALZET osmotic pumps; settings: up to 24 h
[2] = test system: Escherichia coli ATCC 25922; assay: Lethal murine intraperitoneal sepsis (infection) model; format: in vivo, CD-1 mice; settings: control, iv 0.25 mg/kg at 1 h post infection, n = 6
Protocol: Escherichia coli ATCC 25922 was obtained from American Type Culture Collection (Manassas, VA, United States). Cells were grown overnight on solid agar, suspended in saline and adjusted to an OD of 0.1 at 625 nm. The suspension was further diluted in 5% hog gastric mucin (Sigma-Aldrich Corporation, St. Louis, MO, United States) and final inoculums between 4.8 × 10^5 and 2.0 × 10^6 colony forming units (cfu) per mouse were injected ip (500 μL). Api137 and levofloxacin was dissolved in sterile saline and sterile water, respectively, and were administered iv (5 mL/kg) into the tail vein or sc (10 mL/kg) into the back. Alternatively, an hour post infection ALZET® osmotic pumps were implanted under isoflurane anesthesia (see above). After 24 h, pumps were exchanged once and finally removed after 48 h.
The log-rank (Mantel-Cox) test was used for comparison of the survival curves and dose-response curves were fitted with the “dose-response log(inhibitor) vs. normalized response – variable slope” function with “least squares fit” using GraphPad Prism 5.02.

[3] = Pharmacokinetics: Api137 plasma levels after iv or sc injection in mice; design: species or system CD-1 mice; settings: in vivo
Protocol: (§1) Api137 dissolved in 0.9% saline was injected iv or sc in mice (18–26 g, total = 51) and rats (204–248 g, total = 12) at a dose volume of 10 and 5 mL/kg BW, respectively, according to the dosing scheme (Supplementary Figures 1, 2). Three mice per dose and time point were euthanized by carbon dioxide inhalation and blood was collected via cardiac puncture into K2-EDTA Microtainer® tubes (Becton Dickinson and Company, BD, Franklin Lakes, NJ, United States). Additionally, blood was collected via saphenous vein puncture from three rats into identic tubes.
(§2) Api137 was quantified in EDTA plasma samples using reversed-phase chromatography (RP-HPLC) coupled to electrospray ionization mass spectrometry (ESI-MS/MS) at TNO Triskelion (Zeist, Netherlands). Analog Api134 was used as internal standard. Briefly, internal standard solution (10 μL, 5 mg/L) was added to a plasma sample (50 μL) and mixed with aqueous phosphoric acid (50 μL; 4%, v/v). Solid phase extraction was performed on a WCX micro-elution plate (Waters Corporation, Milford, MA, United States) with a final elution using aqueous acetonitrile (75%, v/v) containing 1% (v/v) trifluoroacetic acid. Extracts were analyzed on an Acquity C18 BEH column (2.1 mm internal diameter, 10 cm length, 1.7 μm particle size; Waters) using an Acquity UPLC system coupled online to a XEVO TQS mass spectrometer (Waters; for details see Supplementary Material). Alternatively, Api137 and metabolites 1–16 and 1–17 were quantified for selected samples in house as reported recently ([Schmidt et al., 2017]).
(§3) 1. Quantitative analysis of Api137 in plasma using a LC-MS/ MS method
(§4) Chemicals were obtained from the following manufacturers. Biosolve B.V. (Valkenswaard, The Netherlands): acetonitrile, formic acid, methanol (all ULC/MS grade); Sigma-Aldrich (St.
(§5) Louis, MO, USA): phosphoric acid (Fluka, 85%), trifluoroacetic acid (Reagent Plus, 99%); Merck KGaA (Darmstadt, Germany): ammonia (25%); water (Milli -Q® Advantage A10 Water […]
(§6) Internal standard solution (10 µL, Api134, 5 µg/mL) was added to a plasma sample (50 µL or 25 µL) and mixed with aqueous phosphoric acid (50 µL or 75 µL; 4%, v/v). Solid phase extraction (SPE) was performed on a WCX micro -elution plate (2 mg, Waters):
(§7) Conditioning I Methanol 200
(§8) Conditioning II Purified water 200
(§9) Sample application Diluted plasma sample 110
(§10) Wash step I Aqueous ammonia (5%, v/v) 200
(§11) Wash step II Aqueous acetonitrile (20%, v/v) 200
(§12) Elution I Aqueous acetonitrile (75%, v/v) including trifluoroacetic 50 […]
(§13) Elution II Aqueous acetonitrile (75%, v/v) including trifluoroacetic 50 […]
(§14) Water (100 µL) was added to the eluate and the plate was covered to avoid avaporation. The plate was shaken (10 min, plate shaker) and the extract was analysed using RPC-MS/MS.
(§15) (1 picture or pasted object on this page, not shown here)
(§16) 1.2.RPC-ESI-MS/MS equipment and conditions
(§17) Equipment/Parameter Value
(§18) UPLC system Acquity (Micromass Waters)
(§19) UPLC column temperature 50 °C
(§20) Autosampler temperature 10 °C […]
(§21) Mobile phase A 1% formic acid in water
(§22) Mobile phase B 1% formic acid in acetonitrile
(§23) Strong Wash [Volume] Methanol/Water/Formic acid (80/20/0.1) [200 µL]
(§24) Weak wash [Volume] Acetonitrile/Water/Trifluoroacetic acid (40/60/0.25) [600 µL]
(§25) Mass spectrometer XEVO TQS (Micromass Waters)
(§26) Ionization mode Electrospray ionization (positive mode)
(§27) Source temperature 150 °C
(§28) Desolvation temperature 600 °C
(§29) Desolvation gas flow 1000 L/h
(§30) Time [min] Mobile phase B [%]
(§31) 1.4.Conditions for multiple reaction monitoring
(§32) Peptide Precursor ion (m/z) Product ion (m/z) Cone [V] Collision energy [eV]
(§33) The peak area of the peptides was obtained using MassLynx 4.1 software (Micromass Waters). The peak a rea ratio (PAR) of peptide Api137 and the internal standard Api134 (Y-axis) was plotted versus the actual peptide concentration (x -axis) to construct a calibration […]
(§34) Supplementary Figure 1 : Dosing schemes and time -points of blood collection for pharmacokinetic analysis of three mice per dose group and time -point. […]

SD rats = assay: Tolerance study after intravenous injection in rats; format: in vivo, rat; settings: monitored 24 h, n = 1
Protocol: (§35) Eight female CD-1 mice (22–30 g, n = 2) or four SD rats (218–260 g, n = 1) were treated iv (10 and 5 mL/kg, respectively) with Api137 formulated in 0.9% saline (TEKnova, Hollister, CA, United States) at concentrations of 5, 10, 25, and 50 mg/kg body weight and their behavior monitored for 24 h.

[4] = mouse, in vivo, cited from earlier work
From the text: In particular, cationic proline-rich antimicrobial peptides (PrAMPs) belong to the second group binding to the negatively charged bacteria surface by electrostatic interactions through basic amino acid residues. Proline residues account for extended, partially polyproline helix II-like secondary structures that most likely support free penetration through the outer membrane of Gram-negative bacteria. PrAMPs accumulate in the periplasmic space where the transporters SbmA and MdtM actively translocate them into the cells ([Mattiuzzo et al., 2007]; [Runti et al., 2013]; [Krizsan et al., 2015a]). ... || Severe multi-drug resistant infections are treated under medical supervision in the hospital using intravenous injection or infusion as preferred administration route for rapid and controlled achievement of efficacious drug plasma levels. […] Unexpectedly, the maximal plasma levels of 6.8 mg/L obtai ...

in vivo = assay: in vivo; design: species or system Sprague Dawley rats; settings: Sprague Dawley, rat
Protocol: as §1, §2, §3, §4, §5, §6, §7, §8, §9, §10, §11, §12, §13, §14, §15, §16, §17, §18, §19, §20, §21, §22, §23, §24, §25, §26, §27, §28, §29, §30, §31, §32, §33, §34

CD-1 mice = assay: Tolerance study after intravenous injection in mice; format: in vivo, mouse; settings: female CD-1 mice, n = 2
Protocol: as §35

mouse = settings: in vivo, ip, 10 mg/kg; cited from earlier work
From the text: In particular, cationic proline-rich antimicrobial peptides (PrAMPs) belong to the second group binding to the negatively charged bacteria surface by electrostatic interactions through basic amino acid residues. Proline residues account for extended, partially polyproline helix II-like secondary structures that most likely support free penetration through the outer membrane of Gram-negative bacteria. PrAMPs accumulate in the periplasmic space where the transporters SbmA and MdtM actively translocate them into the cells ([Mattiuzzo et al., 2007]; [Runti et al., 2013]; [Krizsan et al., 2015a]). ...

[5] = CD-1, mouse, iv, 5 mg/kg, Plasma level
[6] = CD-1, mouse, iv, 10 mg/kg, Plasma level
[7] = CD-1, mouse, iv, 20 mg/kg, Plasma level
[8] = CD-1, mouse, sc, 20 mg/kg, Plasma level

Gu-ONNRPVYIPRPRPPHPRL-OH
fragment found [1]: Api137(1-17), major, 1 h; also recorded: Api137(1-16), major, 1 h

C[C@H]1COc2c(N3CCN(C)CC3)c(F)cc3c(=O)c(C(=O)O)cn1c23 [levofloxacin]
Efficacy compared with Api137 [2]: more efficacious

CC[C@H](C)[C@H](NC(=O)[C@H](Cc1ccc(O)cc1)NC(=O)[C@@H](NC(=O)[C@@H]1CCCN1C(=O)[C@H](CCCNC(=N)N)NC(=O)[C@H](CC(N)=O)NC(=O)[C@H](CC(N)=O)NC(=O)[C@H](CCCN)N=C(N(C)C)N(C)C)C(C)C)C(=O)N1CCC[C@H]1C(=O)N[C@@H](CCCNC(=N)N)C(=O)N1CCC[C@H]1C(=O)N[C@@H](CCCNC(=N)N)C(=O)N1CCC[C@H]1C(=O)N1CCC[C@H]1C(=O)N[C@@H](Cc1c[nH]cn1)C(=O)N1CCC[C@H]1C(=O)N[C@@H](CCCNC(=N)N)C(=O)N[C@@H](CC(C)C)C(=O)O [Api137] ({Orn(α-tetramethylguanidino)}-NNRPVYIPRPRPPHPRL-OH)
level at 0.5 h ([3]; CD-1, mouse, 20 mg/kg, Plasma level after 30 min): ~500 ng/mL
Plasma level ([3]; CD-1, mouse, iv): 5 to 20 ng/mL
level at 245 min ([3]; CD-1, mouse, iv, 5 mg/kg, Plasma concentration): 10100 ng/mL
level at 5 min [3, 5]: 6800 ng/mL
level at 0.5 h [3, 5]: 90 ng/mL
level at 245 min ([3]; CD-1, mouse, iv, 10 mg/kg, Plasma concentration): 10500 ng/mL
level at 5 min [3, 6]: 12900 ng/mL
level at 0.5 h [3, 6]: 300 ng/mL
level at 4.5 h [3, 6]: 160 ng/mL
level at 245 min ([3]; CD-1, mouse, iv, 20 mg/kg, Plasma concentration): 22900 ng/mL
level at 5 min [3, 7]: 23200 ng/mL
level at 0.5 h [3, 7]: 440 ng/mL
level at 125 min [3, 7]: 15400 ng/mL
level at 245 min [3, 7]: 12500 ng/mL
level at 4.5 h [3, 7]: 90 ng/mL
level at 5 min ([3]; CD-1, mouse, sc, 5 mg/kg, Plasma level): 400 ng/mL
level at 5 min ([3]; CD-1, mouse, sc, 10 mg/kg, Plasma level): 900 ng/mL
level at 5 min [3, 8]: 2900 ng/mL
level at 0.5 h [3, 8]: 300 ng/mL
level at 1 h [3, 8]: 14 ng/mL
half-life ([3]; mouse, iv, 20 mg/kg): < 30 min
Tolerance after iv injection (SD rats; 5 mg/kg iv): No adverse effects were observed
Tolerance after iv injection (SD rats; 10 to 50 mg/kg iv): experienced labored breathing and lethargy but recovered to normal limits within 5 h post injection
Plasma level ([4]; ip, 5 mg/kg): 200 ng/mL
Maximal plasma level ([4]; ip, 20 mg/kg): 3.6 mg/L
Plasma level (maximal) ([4]; iv, 5 mg/kg): 400 ng/mL
level at 0.5 h (in vivo; iv): 160 to 210 ng/mL
level at 5 min (in vivo; sc, 5 mg/kg): 100 ng/mL
level at 0.5 h (in vivo; sc, 5 mg/kg): 30 ng/mL
level at 5 min (in vivo; sc, 10 mg/kg): 400 ng/mL
level at 0.5 h (in vivo; sc, 10 mg/kg): 80 ng/mL
level at 5 min (in vivo; sc, 20 mg/kg): 800 ng/mL
level at 0.5 h (in vivo; sc, 20 mg/kg): 250 ng/mL
level at 1 h (in vivo; sc, 20 mg/kg): 20 ng/mL
Tolerance after iv injection (CD-1 mice; 5 mg/kg iv in 0.9% saline, monitored 24 h): No adverse effects were observed
Tolerance after iv injection (CD-1 mice; 50 mg/kg iv): experienced convulsion and low blood pressure immediately after dosing and died within 1 min
Tolerance after iv injection (CD-1 mice; 10 and 20 mg/kg iv, monitored 24 h): lethargic within minutes directly after dosing with piloerection for the next 45 min but recovered to normal limits within 1 h
Immune response (anti-Api137 IgG antibodies) (mouse): Only one mouse showed a very weak immune response with a very low level of anti-Api137 IgG antibodies

Reference: publication PMC6783563 (Frontiers in Microbiology, 2019)
